From patent US11814367B2, “Inhibitors of glycogen synthase 1 (GYS1) and methods of use thereof” (Maze Therapeutics, Inc., priority 2021, dated 2023)

Legend:
[1] = target: hGYS2 enzyme (recombinant hGYS2/GN1 protein) (Homo sapiens (Human), UniProt P54840); experiment: GYS2 coupled enzyme assay (PK/LDH); assay type: biochemical; settings: geometric mean of at least 2 assay runs on separate days, read-out: Avg_IC50
Method in brief: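 IC50 came from Hill fits of duplicate percent inhibition, based on control-normalized slopes of 340 nm NADH decline read each minute for 10 min. The reaction held recombinant hGYS2/GN1 (200 nM) with glycogen, UDP-glucose, G6P and PEP, plus PK/LDH coupling at pH 7.5 and 2.5% DMSO.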

[2] = target: hGYS1 enzyme (recombinant hGYS1/GN1 protein) (Homo sapiens (Human), UniProt P13807); experiment: GYS1 coupled enzyme assay (PK/LDH); assay type: biochemical; settings: hGYS1/GN1 50 nM, UDP-Glucose 0.8 mM, G6P 1 mM; geometric mean of at least 2 runs
Chain of hGYS1 enzyme (recombinant hGYS1/GN1 protein) (P13807 whole entry): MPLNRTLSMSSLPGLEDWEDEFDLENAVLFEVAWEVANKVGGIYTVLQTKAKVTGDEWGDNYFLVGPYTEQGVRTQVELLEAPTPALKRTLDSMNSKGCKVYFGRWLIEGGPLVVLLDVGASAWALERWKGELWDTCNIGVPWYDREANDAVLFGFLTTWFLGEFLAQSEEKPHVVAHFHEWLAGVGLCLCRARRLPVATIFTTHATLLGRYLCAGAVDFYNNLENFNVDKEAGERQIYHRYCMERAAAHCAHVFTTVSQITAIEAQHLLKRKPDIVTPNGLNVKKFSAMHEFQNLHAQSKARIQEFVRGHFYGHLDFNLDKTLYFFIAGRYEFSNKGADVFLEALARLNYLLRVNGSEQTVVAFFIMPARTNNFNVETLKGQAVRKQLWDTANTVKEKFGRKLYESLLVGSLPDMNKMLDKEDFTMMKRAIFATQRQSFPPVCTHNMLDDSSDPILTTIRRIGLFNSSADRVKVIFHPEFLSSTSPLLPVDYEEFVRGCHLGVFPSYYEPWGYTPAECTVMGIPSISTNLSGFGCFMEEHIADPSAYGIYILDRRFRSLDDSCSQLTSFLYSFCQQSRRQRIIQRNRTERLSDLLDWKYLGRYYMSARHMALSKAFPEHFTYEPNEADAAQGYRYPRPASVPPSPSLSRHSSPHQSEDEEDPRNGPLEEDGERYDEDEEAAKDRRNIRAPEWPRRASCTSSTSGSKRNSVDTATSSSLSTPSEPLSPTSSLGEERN
Chain of hGYS1 enzyme (recombinant hGYS1/GN1 protein) (P46976 whole entry partner): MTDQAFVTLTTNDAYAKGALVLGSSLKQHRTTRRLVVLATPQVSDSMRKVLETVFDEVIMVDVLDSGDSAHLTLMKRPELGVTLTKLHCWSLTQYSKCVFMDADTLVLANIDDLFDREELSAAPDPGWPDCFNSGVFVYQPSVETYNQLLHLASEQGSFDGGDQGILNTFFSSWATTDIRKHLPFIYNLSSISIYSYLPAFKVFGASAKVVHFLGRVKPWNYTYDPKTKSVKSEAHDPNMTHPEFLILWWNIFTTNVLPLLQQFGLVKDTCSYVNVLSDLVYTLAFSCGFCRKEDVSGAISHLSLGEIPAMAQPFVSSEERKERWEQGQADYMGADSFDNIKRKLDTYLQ

[3] = system: hGYS1 enzyme / glycogen synthesis in HeLa cells; experiment: GYS1 cell based assay (glycogen synthesis, Glucose-glo); set-up: species or system human; settings: Homo sapiens, HeLa, 24 h, 24 h incubation, 20 mM glucose, geometric mean of at least 2 runs
Method in brief: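 HeLa cells starved 24 h in medium containing only 1× Glutamax were plated onto compound in medium with 20 mM glucose (1% DMSO final) for 24 h, 37 °C, 5% CO2. Acid lysates were Tris-quenched, glucoamylase-digested (pH 5.3, 1 h, 37 °C) and read by Glucose-glo luminescence. IC50 came from Hill fits, as geometric mean of ≥2 runs.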

Chain of hGYS2 enzyme (recombinant hGYS2/GN1 protein) (P54840 whole entry): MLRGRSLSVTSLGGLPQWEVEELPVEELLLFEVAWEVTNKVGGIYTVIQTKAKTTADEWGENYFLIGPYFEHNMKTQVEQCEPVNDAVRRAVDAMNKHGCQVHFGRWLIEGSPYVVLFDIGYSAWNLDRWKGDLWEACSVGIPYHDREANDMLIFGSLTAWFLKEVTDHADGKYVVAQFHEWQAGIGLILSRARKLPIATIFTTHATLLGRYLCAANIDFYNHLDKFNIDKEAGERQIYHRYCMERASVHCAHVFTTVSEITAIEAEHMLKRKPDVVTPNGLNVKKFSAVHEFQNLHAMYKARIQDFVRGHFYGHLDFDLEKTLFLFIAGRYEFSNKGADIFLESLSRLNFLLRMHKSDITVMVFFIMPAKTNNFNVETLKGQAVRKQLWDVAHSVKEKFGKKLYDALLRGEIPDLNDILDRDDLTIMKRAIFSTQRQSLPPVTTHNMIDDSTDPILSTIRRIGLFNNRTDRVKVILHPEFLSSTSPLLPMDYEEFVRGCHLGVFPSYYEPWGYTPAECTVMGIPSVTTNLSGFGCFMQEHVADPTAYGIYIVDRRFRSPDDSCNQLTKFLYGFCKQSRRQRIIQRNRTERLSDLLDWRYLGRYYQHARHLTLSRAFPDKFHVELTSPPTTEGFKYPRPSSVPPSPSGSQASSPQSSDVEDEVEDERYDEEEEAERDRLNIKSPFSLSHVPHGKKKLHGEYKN
Chain of hGYS2 enzyme (recombinant hGYS2/GN1 protein) (P46976 whole entry partner): as the sequence (P46976 whole entry partner) above

SMILES	IC50 [1]	IC50 [2]	IC50 [3]
CC(C)c1ccc(C(CC2CC2)NC(=O)[C@@H]2C[C@@H](F)CN2C(=O)Cc2cnn[nH]2)cc1F (single isomer, unassigned) [Compound 653, (2S,4R)-N-[(1S) or (1R)-2-cyclopropyl-1-[3-fluoro-4-(propan-2-yl)phenyl]ethyl]-4-fluoro-1-[2-(1H-1,2,3-triazol-5-yl)acetyl]pyrrolidine-2-carboxamide]	> 100000 nM	262 nM	3750 nM
Cc1coc(CC(=O)N2C[C@H](F)C[C@H]2C(=O)N[C@@H](c2ccccc2)c2ccc(C3CC(F)(F)C3)c(F)c2)n1 [Compound 554, (2S,4R)-N-[(S)-[4-(3,3-difluorocyclobutyl)-3-fluorophenyl](phenyl)methyl]-4-fluoro-1-[2-(4-methyl-1,3-oxazol-2-yl)acetyl]pyrrolidine-2-carboxamide]	> 100000 nM	34 nM	380 nM
Cc1nn(CC(=O)N2C[C@H](F)C[C@H]2C(=O)N[C@@H](c2ccccc2)c2ccc(C3CC(F)(F)C3)c(F)n2)c(=O)o1 [Compound 502, (2S,4R)-N-[(S)-[5-(3,3-difluorocyclobutyl)-6-fluoropyridin-2-yl](phenyl)methyl]-4-fluoro-1-[2-(5-methyl-2-oxo-2,3-dihydro-1,3,4-oxadiazol-3-yl)acetyl]pyrrolidine-2-carboxamide]	> 100000 nM	10 nM	170 nM
Cc1ccc2c(CC(=O)N3C[C@H](F)C[C@H]3C(=O)N[C@@H](c3ccccc3)c3ccc(C(C)C)c(F)n3)cccc2n1 [Compound 387, (2S,4R)-4-fluoro-N-[(S)-[6-fluoro-5-(propan-2-yl)pyridin-2-yl](phenyl)methyl]-1-[2-(2-methylquinolin-5-yl)acetyl]pyrrolidine-2-carboxamide]	36200 nM	5 nM	30 nM
CN1C(=O)C(CC(=O)N2C[C@H](F)C[C@H]2C(=O)N[C@@H](c2ccccc2)c2ccc(C3(C)CC3)c(F)n2)c2ccccc21 (stereo partly drawn) [Compound 597, (2S,4R)-4-fluoro-N-[(S)-[6-fluoro-5-(1-methylcyclopropyl)pyridin-2-yl](phenyl)methyl]-1-[2-(1-methyl-2-oxo-2,3-dihydro-1H-indol-3-yl)acetyl]pyrrolidine-2-carboxamide]	> 100000 nM	64 nM	1320 nM
CC1(c2ccc([C@@H](NC(=O)[C@@H]3C[C@@H](F)CN3C(=O)Cn3nnc4ccccc43)c3ccccc3)cc2F)CC1 [Compound 575, (2S,4R)-1-[2-(1H-1,2,3-benzotriazol-1-yl)acetyl]-4-fluoro-N-[(S)-[3-fluoro-4-(1-methylcyclopropyl)phenyl](phenyl)methyl]pyrrolidine-2-carboxamide]	> 100000 nM	119 nM	2090 nM
CC[C@@H]1CN(C(C)=O)C[C@@H]1C(=O)N1C[C@H](F)C[C@H]1C(=O)N[C@@H](c1ccccc1)c1ccc(C(C)C)cc1 [Compound 179, (2S,4R)-1-[(3R,4S)-1-acetyl-4-ethylpyrrolidine-3-carbonyl]-4-fluoro-N-[(S)-phenyl[4-(propan-2-yl)phenyl]methyl]pyrrolidine-2-carboxamide]	> 100000 nM	31 nM	400 nM
Cc1nn(CC(=O)N2C[C@H](F)C[C@H]2C(=O)N[C@@H](c2ccccc2)c2ccc(C(C)C)c(F)n2)c(=O)o1 [Compound 411, (2S,4R)-4-fluoro-N-[(S)-[6-fluoro-5-(propan-2-yl)pyridin-2-yl](phenyl)methyl)-1-[2-(5-methyl-2-oxo-2,3-dihydro-1,3,4-oxadiazol-3-yl)acetyl]pyrrolidine-2-carboxamide]	> 100000 nM	10 nM	220 nM
O=C(N[C@@H](c1ccccc1)c1ccc(C2CC2)c(F)c1)[C@@H]1C[C@@H](F)CN1C(=O)Cn1cnnc1 [Compound 481, (2S,4R)-N-[(S)-(4-cyclopropyl-3-fluorophenyl)(phenyl)methyl]-4-fluoro-1-[2-(4H-1,2,4-triazol-4-yl)acetyl]pyrrolidine-2-carboxamide]	> 100000 nM	247 nM	7770 nM
O=C(N[C@@H](c1ccccc1)c1ccc(C2CC2)c(F)n1)[C@@H]1C[C@@H](F)CN1C(=O)CNC(=O)N1CC(F)(F)C1 [Compound 315, (2S,4R)-N-[(S)-(5-cyclopropyl-6-fluoropyridin-2-yl)(phenyl)methyl]-1-{2-[(3,3-difluoroazetidine-1-carbonyl)amino]acetyl}-4-fluoropyrrolidine-2-carboxamide]	> 100000 nM	23 nM	730 nM
Cn1c(=O)ccn(CC(=O)N2C[C@H](F)C[C@H]2C(=O)N[C@@H](c2ccccc2)c2ccc(C3CC3)c(F)c2)c1=O [Compound 449, (2S,4R)-N-[(S)-(4-cyclopropyl-3-fluorophenyl)(phenyl)methyl]-4-fluoro-1-[2-(3-methyl-2,4-dioxo-1,2,3,4-tetrahydropyrimidin-1-yl)acetyl]pyrrolidine-2-carboxamide]	> 100000 nM	39 nM	700 nM
Cn1nc(CC(=O)N2C[C@H](F)C[C@H]2C(=O)N[C@@H](c2ccccc2)c2ccc(C3CC3)c(F)c2)c2ccccc21 [Compound 459, (2S,4R)-N-[(S)-(4-cyclopropyl-3-fluorophenyl)(phenyl)methyl]-4-fluoro-1-[2-(1-methyl-1H-indazol-3-yl)acetyl]pyrrolidine-2-carboxamide]	> 100000 nM	28 nM	750 nM
CN(C)c1cn(CC(=O)N2C[C@H](F)C[C@H]2C(=O)N[C@@H](c2ccccc2)c2ccc(C3CC3)c(F)c2)nn1 [Compound 484, (2S,4R)-N-[(S)-(4-cyclopropyl-3-fluorophenyl)(phenyl)methyl]-1-{2-[4-(dimethylamino)-1H-1,2,3-triazol-1-yl]acetyl}-4-fluoropyrrolidine-2-carboxamide]	> 100000 nM	66 nM	820 nM
CN(C)C(=O)NCC(=O)N1C[C@H](F)C[C@H]1C(=O)N[C@@H](c1ccccc1)c1ccc(C2CC2)c(F)n1 [Compound 300, (2S,4R)-N-[(S)-(5-cyclopropyl-6-fluoropyridin-2-yl)(phenyl)methyl]-1-{2-[(dimethylcarbamoyl)amino]acetyl}-4-fluoropyrrolidine-2-carboxamide]	> 100000 nM	28 nM	570 nM
CNC(=O)NCC(=O)N1C[C@H](F)C[C@H]1C(=O)N[C@@H](c1ccccc1)c1ccc(C(C)C)cn1 [Compound 261, (2S,4R)-4-fluoro-1-{2-[(methylcarbamoyl)amino]acetyl}-N-[(S)-phenyl[5-(propan-2-yl)pyridin-2-yl]methyl]pyrrolidine-2-carboxamide]	> 100000 nM	59 nM	1800 nM
O=C(N[C@@H](c1ccccc1)c1ccc(C2CC2)c(F)c1)[C@@H]1C[C@@H](F)CN1C(=O)CNC(=O)N1CC(C(F)(F)F)C1 [Compound 496, (2S,4R)-N-[(S)-(4-cyclopropyl-3-fluorophenyl)(phenyl)methyl]-4-fluoro-1-(2-{[3-(trifluoromethyl)azetidine-1-carbonyl]amino}acetyl) pyrrolidine-2-carboxamide]	> 100000 nM	86 nM	1820 nM
CC(C)c1ccc([C@@H](NC(=O)[C@@H]2C[C@@H](F)CN2C(=O)Cn2cnnn2)c2ccccc2)nc1 [Compound 252, (2S,4R)-4-fluoro-N-[(S)-phenyl[5-(propan-2-yl)pyridin-2-yl]methyl}-1-[2-(1H-1,2,3-tetrazol-1-yl)acetyl]pyrrolidine-2-carboxamide]	> 100000 nM	186 nM	2480 nM
CC(C)c1ccc([C@@H](NC(=O)[C@@H]2C[C@@H](F)CN2C(=O)Cc2cccnc2)c2ccccc2)cc1F [Compound 348, (2S,4R)-4-fluoro-N-[(S)-[3-fluoro-4-(propan-2-yl)phenyl](phenyl)methyl]-1-[2-(pyridin-3-yl)acetyl]pyrrolidine-2-carboxamide]	> 100000 nM	24 nM	270 nM
CC1(c2ccc([C@@H](NC(=O)[C@@H]3C[C@@H](F)CN3C(=O)Cn3cnnc3)c3ccccc3)cc2F)CC1 [Compound 582, (2S,4R)-4-fluoro-N-[(S)-[3-fluoro-4-(1-methylcyclopropyl)phenyl](phenyl)methyl]-1-[2-(4H-1,2,4-triazol-4-yl)acetyl]pyrrolidine-2-carboxamide]	> 100000 nM	319 nM	8080 nM
O=C(N[C@@H](c1ccccc1)c1ccc(C2CC2)c(F)n1)[C@@H]1C[C@@H](F)CN1C(=O)Cn1cc(N2CCC2)nn1 [Compound 726, (2S,4R)-1-{2-[4-(azetidin-1-yl)-1H-1,2,3-triazol-1-yl]acetyl}-N-[(S)-(5-cyclopropyl-6-fluoropyridin-2-yl)(phenyl)methyl]-4-fluoropyrrolidine-2-carboxamide]	> 100000 nM	30 nM	540 nM
Cc1ccc2[nH]cc(CC(=O)N3C[C@H](F)C[C@H]3C(=O)N[C@@H](c3ccccc3)c3ccc(C(C)C)cc3)c2c1 [Compound 138, (2S,4R)-4-fluoro-1-[2-(5-methyl-1H-indol-3-yl)acetyl]-N-[(S)-phenyl[4-(propan-2-yl)phenyl]methyl]pyrrolidine-2-carboxamide]	> 100000 nM	12 nM	270 nM
